Reference: patent US10808005B2, “Ligand for orphan nuclear receptor Nur77 and uses thereof” (IXMEDICINE (XIAMEN) BIOLOGICAL TECHNOLOGY COMPANY LIMITED, priority 2016, dated 2020)
Read-outs that look alike come from different tables or passages of the source.

Tests used:
MDA-MB-231 = test: Proliferation of MDA-MB-231 breast cancer cells; type: cell-based; conditions: Homo sapiens
MDA-MB-231 cells = test: Immunoblot of parp (apoptosis) in MDA-MB-231 cells; type: cell-based; conditions: 4 μM and TNFα (20 ng/ml)
[1] = tested on: BT474, ZR-75-1, BT549, HCC1937, HS578T, MCF-7, and T47D; test: Inhibition rate on seven breast cancer cells; type: cell-based; conditions: various breast cancer cells, FIG. 11C
[2] = tested on: IκBα and phosphorylated IKKα/β; test: Immunoblot of IκBα and phosphorylated IKKα/β in TNFα-treated HepG2 cells; type: cell-based; conditions: TNFα 20 ng/mL 30 minutes
From the text: IκBα and phosphorylated IKKα/β in the cells were then detected by WB.
In addition, HepG2 cells were also applied in the experiment. […] IκBα in the cells was then detected by WB.

mTOR signaling pathway = test: Immunoblot of p-mTOR, p-P70S6K, p-S6 in TNFα-treated starved MDA-MB-231 cells; type: cell-based; conditions: MDA-MB-231, serum-free 10 h; 2 μM and TNFα (20 ng/ml)
Nur77-LBD = Nur77-LBD (Homo sapiens, UniProt P22736); test: Surface plasmon resonance (Biacore T200) binding to Nur77-LBD
MCF-7 = test: Proliferation of MCF-7 breast cancer cells; type: cell-based; conditions: Homo sapiens, read-out: IC50 for inhibiting the proliferation
MDA-MB-468 = test: Proliferation of MDA-MB-468 breast cancer cells; type: cell-based; conditions: Homo sapiens, MDA-MB-468, 72 h; read-out: IC50 for inhibiting the proliferation
BT549 = test: Proliferation of BT549 breast cancer cells; type: cell-based; conditions: Homo sapiens, BT-549; BT549, 72 h; read-out: IC50 for inhibiting the proliferation
SKBR3 = test: Proliferation of SKBR3 breast cancer cells; type: cell-based; conditions: Homo sapiens, SK-BR-3; SKBR3, 72 h; read-out: IC50 for inhibiting the proliferation
T47D = test: Proliferation of T47D breast cancer cells; type: cell-based; conditions: Homo sapiens, 72 h, read-out: IC50 for inhibiting the proliferation
wild-type Hela cells = test: Proliferation of wild-type Hela cells; type: cell-based; conditions: Homo sapiens
[3] = tested on: Nur77 knocked-out Hela cells; test: Proliferation of Nur77 knocked-out Hela cells; type: cell-based; conditions: Homo sapiens
[4] = Acute toxicity model mice, histopathology; type: in vivo
From the text: The tissue morphologies of the heart, liver, small intestine, white fat and kidney were observed by Histopathological method.

[5] = MDA-MB-231, FIG. 11B, read-out: IC50 for the inhibition of proliferation
[6] = Biacore T200, read-out: dissociation constant (Kd) to Nur77-LBD
[7] = single intragastric injection 200 mg/kg
[8] = single intraperitoneal injection 20 mg/kg

Sequence of Nur77-LBD (P22736 360-595 limits assumed): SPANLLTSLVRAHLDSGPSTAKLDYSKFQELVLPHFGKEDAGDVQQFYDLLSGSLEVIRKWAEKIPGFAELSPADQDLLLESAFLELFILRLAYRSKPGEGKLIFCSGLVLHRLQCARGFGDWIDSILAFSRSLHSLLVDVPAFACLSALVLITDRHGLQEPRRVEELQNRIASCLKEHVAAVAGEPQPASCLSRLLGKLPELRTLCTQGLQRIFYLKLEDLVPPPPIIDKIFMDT

In the case of `COC(=O)[C@]1(C)CC[C@]2(C)CC[C@]3(C)C4=CC=C5C(=CC(=O)C(O)=C5C)[C@]4(C)CC[C@@]3(C)[C@@H]2C1` [XS0077], the IC50 (MDA-MB-231; MDA-MB-231, read-out: IC50 for the inhibition of proliferation) is reported as 1840 nM and the “PARP cleavage in comparison with YXY101” value (MDA-MB-231 cells) is reported as “can more significantly induce PARP cleavage”.

With `CC1=C(O)C(=O)C=C2C1=CC=C1[C@@]2(C)CC[C@@]2(C)[C@@H]3C[C@](C)(C(=O)OCc4ccccc4)CC[C@]3(C)CC[C@]12C` [XS0285] the “inhibitory effects on proliferation compared with YXY101” value [1] was “close or even stronger than that of YXY101”.

In the case of `COc1ccc(NC(=O)[C@]2(C)CC[C@]3(C)CC[C@]4(C)C5=CC=C6C(=CC(=O)C(O)=C6C)[C@]5(C)CC[C@@]4(C)[C@@H]3C2)cc1` [XS0287], the “TNFα-induced degradation of IκBα” value [2] is reported as “capable of inhibiting TNFα-induced degradation of IκBα”.

With `Cc1c(O)c(O)cc2c1CCC1[C@@]2(C)CC[C@@]2(C)[C@@H]3C[C@](C)(C(=O)O)CC[C@]3(C)CC[C@]12C` (stereo partly shown) [XS0335] the IC50 (MDA-MB-231; [5]) was 1880 nM and the “P-mTOR, P-p70S6K, and P—S6 in comparison with YXY101” value (“P-mTOR, P-p70S6K, and P—S6” for short) (mTOR signaling pathway) was “can more significantly reduce P-mTOR, P-p70S6K, and P—S6”.

In the case of `CCOC(=O)OC1=C(C)C2=CC=C3[C@@](C)(CC[C@@]4(C)[C@@H]5C[C@](C)(C(=O)O)CC[C@]5(C)CC[C@]34C)C2=CC1=O` [XS0394], the Kd (Nur77-LBD; [6]) is reported as 1260 nM and the “P-mTOR, P-p70S6K, and P—S6” value (mTOR signaling pathway) is reported as “can more significantly reduce P-mTOR, P-p70S6K, and P—S6”.

For `CCOC(=O)COC(=O)[C@]1(C)CC[C@]2(C)CC[C@]3(C)C4=CC=C5C(=CC(=O)C(O)=C5C)[C@]4(C)CC[C@@]3(C)[C@@H]2C1` [XS0418], the Kd (Nur77-LBD; [6]) was 3670 nM, the “PARP cleavage in comparison with YXY101” value (MDA-MB-231 cells) was “can more significantly induce PARP cleavage” and the “P-mTOR, P-p70S6K, and P—S6” value (mTOR signaling pathway) was “can more significantly reduce P-mTOR, P-p70S6K, and P—S6”. The “inhibitory effects on proliferation compared with YXY101” value [1] was “close or even stronger than that of YXY101”.

For `Cc1c(O)c(O)cc2c1CC=C1[C@@]2(C)CC[C@@]2(C)[C@@H]3C[C@](C)(C(=O)O)CC[C@]3(C)CC[C@]12C` [XS0419], the Kd (Nur77-LBD) was 404 nM, the IC50 (MDA-MB-231; [5]) was 1270 nM and the “PARP cleavage in comparison with YXY101” value (MDA-MB-231 cells) was “can more significantly induce PARP cleavage”. The “P-mTOR, P-p70S6K, and P—S6” value (mTOR signaling pathway) was “can more significantly reduce P-mTOR, P-p70S6K, and P—S6” and the “inhibitory effects on proliferation compared with YXY101” value [1] was “close or even stronger than that of YXY101”.

In the case of `CCOC(=O)[C@]1(C)CC[C@]2(C)CC[C@]3(C)C4=CC=C5C(=CC(=O)C(O)=C5C)[C@]4(C)CC[C@@]3(C)[C@@H]2C1` [XS0462], the “inhibitory effects on proliferation compared with YXY101” value [1] is reported as “close or even stronger than that of YXY101”.

With `[2H]C1C=C2[C@@](C)(CC[C@@]3(C)[C@@H]4C[C@](C)(C(=O)O)CC[C@]4(C)CC[C@]23C)c2cc(O)c(O)c(C)c21` (stereo partly shown) [XS0474] the Kd (Nur77-LBD) was 2600 nM, the IC50 (MDA-MB-231; [5]) was 2930 nM and the “P-mTOR, P-p70S6K, and P—S6” value (mTOR signaling pathway) was “can more significantly reduce P-mTOR, P-p70S6K, and P—S6”.

In the case of `COP(=O)(OC)OC(=O)[C@]1(C)CC[C@]2(C)CC[C@]3(C)C4=CC=C5C(=CC(=O)C(O)=C5C)[C@]4(C)CC[C@@]3(C)[C@@H]2C1` [XS0486], the “P-mTOR, P-p70S6K, and P—S6” value (mTOR signaling pathway) is reported as “can more significantly reduce P-mTOR, P-p70S6K, and P—S6”.

In the case of `CCCC(=O)OC1=C(C)C2=CC=C3[C@@](C)(CC[C@@]4(C)[C@@H]5C[C@](C)(C(=O)OC)CC[C@]5(C)CC[C@]34C)C2=CC1=O` [XS0488], the Kd (Nur77-LBD; [6]) is reported as 1280 nM, the IC50 (MDA-MB-231; [5]) is reported as 1900 nM and the “inhibitory effects on proliferation compared with YXY101” value [1] is reported as “close or even stronger than that of YXY101”.

For `CCOP(=O)(OCC)OC(=O)[C@]1(C)CC[C@]2(C)CC[C@]3(C)C4=CC=C5C(=CC(=O)C(O)=C5C)[C@]4(C)CC[C@@]3(C)[C@@H]2C1` [XS0491], the Kd (Nur77-LBD) was 336 nM and the “P-mTOR, P-p70S6K, and P—S6” value (mTOR signaling pathway) was “can more significantly reduce P-mTOR, P-p70S6K, and P—S6”.

With `CC1=C(O)C(=O)C=C2C1=CC=C1[C@@]2(C)CC[C@@]2(C)[C@@H]3C[C@](C)(C(=O)OP(=O)(OC(C)C)OC(C)C)CC[C@]3(C)CC[C@]12C` [XS0492] the Kd (Nur77-LBD; [6]) was 1300 nM, the “PARP cleavage in comparison with YXY101” value (MDA-MB-231 cells) was “can more significantly induce PARP cleavage” and the “P-mTOR, P-p70S6K, and P—S6” value (mTOR signaling pathway) was “can more significantly reduce P-mTOR, P-p70S6K, and P—S6”.

For `Cc1c(O)c(O)cc2c1CC=C1[C@@]2(C)CC[C@@]2(C)[C@@H]3C[C@](C)(CO)CC[C@]3(C)CC[C@]12C` [XS0503], the IC50 (MDA-MB-231; MDA-MB-231, 24 h, read-out: IC50 for inhibiting the proliferation) was 1190 nM and the IC50 (MCF-7; MCF7, MCF-7, 24 h) was 2650 nM.

In the case of `COC(=O)[C@]1(C)CC[C@]2(C)CC[C@]3(C)C4=CC(S(=O)(=O)[O-])c5c(cc(O)c(O)c5C)[C@]4(C)CC[C@@]3(C)[C@@H]2C1.[Na+]` (stereo partly shown) [XS0508], the “PARP cleavage in comparison with YXY101” value (MDA-MB-231 cells) is reported as “can more significantly induce PARP cleavage”.

In the case of `CC1=C(O)C(=O)C=C2C1=CC=C1[C@@]2(C)CC[C@@]2(C)[C@@H]3C[C@](C)(C(=O)O)CC[C@]3(C)CC[C@]12C` [YXY101, Celastrol], the IC50 (MDA-MB-231; MDA-MB-231, 72 h, read-out: IC50 for inhibiting the proliferation) is reported as 1200 nM, the IC50 (MDA-MB-468) is reported as 187 nM and the IC50 (BT549) is reported as 245 nM. For the same compound, the IC50 (SKBR3) was 2650 nM, the IC50 (T47D) was 74500 nM and the IC50 (MCF-7; MCF7, 72 h) was 11500 nM. The IC50 (wild-type Hela cells) was 1190 nM, the IC50 [3] was 58200 nM and the adipose tissue morphology [4, 7] was “the adipose tissue cells were arranged disorderly and some of the fibers were broken”. For the same compound, the heart tissue morphology [4, 7] was “arranged disorderly”, the liver tissue morphology [4, 7] was “the lobuli hepatis boundaries were blurred, the cytoplasm was reduced, and most of the hepatocytes died” and the “small intestine tissue morphology” value [4, 7] was “the intestinal tissue was swollen apparently, the cell death increases, the inflammatory reaction was obvious, the intestinal villi were arranged disorderly”. For the same compound, the adipose tissue morphology [4, 8] was “the adipose tissue cells were arranged disorderly and had many inflammatory cell infiltration”, the heart tissue morphology [4, 8] was “arranged disorderly” and the kidney tissue morphology [4, 8] was “the kidney tissue had blurred glomerulus boundaries and many inflammatory cell infiltration, and the arrangement was not neat”. The liver tissue morphology [4, 8] was “the lobuli hepatis had substantially obvious boundaries, the hepatocytes were plump and had normal morphology”.
